Laboratory results published in ChEMBL document CHEMBL3272133, “1-[4-(4-Chlorophenyl)-2-(2,6-dichlorophenylthio)-n-butyl]-1H-imidazole nitrate, a new potent antifungal agent” (J Med Chem, 1978).
Active and inactive are the calls of the source. No cut-off for these calls is given here.

Experiments:
Saccharomyces cerevisiae [1] = assay: Mutagenic activity in Saccharomyces cerevisiae D4 at 0.1 ug/plate by Ames assay in presence of rat liver microsomal enzyme preparation; type: toxicity, organism-based; details: microsomes
Candida albicans [2] = assay: Antifungal activity against Candida albicans infected in mouse assessed as noninfected animals at 0.25% formulation in neat PEG 400 solution administered vaginally bid for 4 days measured 6 hrs post last dose relative to placebo; type: functional
Enterococcus faecalis = assay: Antibacterial activity against Streptococcus faecalis No. 8043-2 assessed as growth inhibition by broth microdilution method; type: functional
Trichophyton rubrum = assay: Antifungal activity against Trichophyton rubrum assessed as growth inhibition by agar dilution method; type: functional
Candida albicans [3] = assay: Antifungal activity against mixed infection of Candida albicans infected in mouse assessed as noninfected animals at 1% formulation in modified PEG 400 solution administered vaginally bid for 4 days measured on day 7 relative to placebo; type: functional
Salmonella typhimurium [4] = assay: Mutagenic activity in Salmonella typhimurium TA-98 at 0.1 to 100 ug/plate by Ames assay; type: toxicity, organism-based; details: salmonella enterica subsp. enterica serovar typhimurium
Nannizzia gypsea = assay: Antifungal activity against Microsporum gypseum assessed as growth inhibition by agar dilution method; type: functional
Salmonella typhimurium [5] = assay: Mutagenic activity in Salmonella typhimurium TA-100 at 0.1 to 100 ug/plate by Ames assay in presence of rat liver microsomal enzyme preparation; type: toxicity, organism-based; details: salmonella enterica subsp. enterica serovar typhimurium, microsomes
Candida albicans [6] = assay: Antifungal activity against mixed infection of Candida albicans infected in mouse assessed as noninfected animals at 1% formulation administered vaginally bid for 4 days measured 6 hrs post last dose relative to placebo; type: functional
Candida albicans [7] = assay: Antifungal activity against Candida albicans ATCC 10231 assessed as growth inhibition by broth dilution method; type: functional
[8] = test system: Trichophyton mentagrophytes; assay: Antifungal activity against Trichophyton mentagrophytes assessed as growth inhibition by agar dilution method; type: functional
Staphylococcus aureus [9] = assay: Antibacterial activity against Staphylococcus aureus No. 14154 assessed as growth inhibition by broth microdilution method; type: functional
[10] = Acute toxicity in ip dosed mouse; type: organism-based; details: in vivo
Candida albicans [11] = assay: Antifungal activity against mixed infection of Candida albicans infected in mouse assessed as noninfected animals at 0.5% formulation administered vaginally bid for 4 days measured 6 hrs post last dose relative to placebo; type: functional
Cryptococcus neoformans = assay: Antifungal activity against Cryptococcus neoformans assessed as growth inhibition by broth dilution method; type: functional
Saccharomyces cerevisiae [12] = assay: Mutagenic activity in Saccharomyces cerevisiae D4 at 0.1 ug/plate by Ames assay; type: organism-based
Candida albicans [13] = assay: Antifungal activity against Candida albicans infected in mouse assessed as noninfected animals at 0.5% formulation in neat PEG 400 solution administered vaginally bid for 4 days measured 6 hrs post last dose relative to placebo; type: functional
Saccharomyces cerevisiae [14] = assay: Toxicity in Saccharomyces cerevisiae D4 at 500 ug/plate; type: organism-based; details: in vivo
Candida albicans [15] = assay: Antifungal activity against mixed infection of Candida albicans infected in mouse assessed as noninfected animals at 0.2% formulation administered vaginally bid for 4 days measured 6 hrs post last dose relative to placebo; type: functional
Candida albicans [16] = assay: Antifungal activity against Candida albicans infected in mouse assessed as noninfected animals at 0.25% formulation in neat PEG 400 solution administered vaginally bid for 4 days measured on day 7 relative to placebo; type: functional
Candida albicans [17] = assay: Antifungal activity against Candida albicans infected in mouse assessed as noninfected animals at 0.5% formulation in neat PEG 400 solution administered vaginally bid for 4 days measured on day 7 relative to placebo; type: functional
Candida albicans [18] = assay: Antifungal activity against Candida albicans infected in mouse assessed as noninfected animals at 2% formulation in neat PEG 400 solution administered vaginally bid for 4 days measured 6 hrs post last dose relative to placebo; type: functional
Salmonella typhimurium [19] = assay: Toxicity in Salmonella typhimurium TA-98 at 500 ug/plate; type: organism-based; details: salmonella enterica subsp. enterica serovar typhimurium
Epidermophyton floccosum = assay: Antifungal activity against Epidermophyton floccosum assessed as growth inhibition by agar dilution method; type: functional
[20] = Acute toxicity in ip dosed rat; type: organism-based; details: in vivo
Candida albicans [21] = assay: Antifungal activity against Candida albicans infected in mouse assessed as noninfected animals at 2% formulation in neat PEG 400 solution administered vaginally bid for 4 days measured on day 7 relative to placebo; type: functional
Salmonella typhimurium [22] = assay: Toxicity in Salmonella typhimurium TA-1535 at 500 ug/plate; type: organism-based; details: salmonella enterica subsp. enterica serovar typhimurium
[23] = test system: Trichophyton mentagrophytes; assay: Antifungal activity against Trichophyton mentagrophytes infected in guinea pig assessed as noninfected animals at 0.5% formulation in steryl alcohol, cetyl alcohol, Span 60, Tween 60, propylene glycol, mineral oil, and water administered qd for 5 days measured on day 4; type: functional
Candida albicans [24] = assay: Antifungal activity against mixed infection of Candida albicans infected in mouse assessed as noninfected animals at 1% formulation administered vaginally bid for 4 days measured on day 7 relative to placebo; type: functional
Candida albicans [25] = assay: Antifungal activity against mixed infection of Candida albicans infected in mouse assessed as noninfected animals at 0.1% formulation administered vaginally bid for 4 days measured 6 hrs post last dose relative to placebo; type: functional
Candida albicans [26] = assay: Antifungal activity against mixed infection of Candida albicans infected in mouse assessed as noninfected animals at 0.5% formulation administered vaginally bid for 4 days measured on day 7 relative to placebo; type: functional
Salmonella typhimurium [27] = assay: Mutagenic activity in Salmonella typhimurium TA-1537 at 0.1 to 100 ug/plate by Ames assay in presence of rat liver microsomal enzyme preparation; type: toxicity, organism-based; details: salmonella enterica subsp. enterica serovar typhimurium, microsomes
Salmonella typhimurium [28] = assay: Toxicity in Salmonella typhimurium TA-1538 at 500 ug/plate; type: organism-based; details: salmonella enterica subsp. enterica serovar typhimurium
Streptococcus pyogenes = assay: Antibacterial activity against Streptococcus pyogenes No. 8668 assessed as growth inhibition by broth microdilution method; type: functional
Salmonella typhimurium [29] = assay: Mutagenic activity in Salmonella typhimurium TA-1535 at 0.1 to 100 ug/plate by Ames assay; type: toxicity, organism-based; details: salmonella enterica subsp. enterica serovar typhimurium
Candida albicans [30] = assay: Antifungal activity against mixed infection of Candida albicans infected in mouse assessed as noninfected animals at 0.2% formulation administered vaginally bid for 4 days measured on day 7 relative to placebo; type: functional
[31] = Acute toxicity in po dosed female rat; type: organism-based; details: in vivo
Trichophyton tonsurans = assay: Antifungal activity against Trichophyton tonsurans assessed as growth inhibition by agar dilution method; type: functional
Candida albicans [32] = assay: Antifungal activity against mixed infection of Candida albicans infected in mouse assessed as noninfected animals at 0.1% formulation administered vaginally bid for 4 days measured on day 7 relative to placebo; type: functional
[33] = Acute toxicity in po dosed male rat; type: organism-based; details: in vivo
Salmonella typhimurium [34] = assay: Toxicity in Salmonella typhimurium TA-1537 at 500 ug/plate; type: organism-based; details: salmonella enterica subsp. enterica serovar typhimurium
Candida albicans [35] = assay: Antifungal activity against Candida albicans infected in mouse assessed as noninfected animals at 1% formulation in neat PEG 400 solution administered vaginally bid for 4 days measured on day 7 relative to placebo; type: functional
Salmonella typhimurium [36] = assay: Mutagenic activity in Salmonella typhimurium TA-1538 at 0.1 to 100 ug/plate by Ames assay; type: toxicity, organism-based; details: salmonella enterica subsp. enterica serovar typhimurium
[37] = test system: Trichophyton mentagrophytes; assay: Antifungal activity against Trichophyton mentagrophytes infected in guinea pig assessed as noninfected animals at 0.5% formulation in steryl alcohol, cetyl alcohol, Span 60, Tween 60, propylene glycol, mineral oil, and water administered qd for 5 days measured on day 14; type: functional
Salmonella typhimurium [38] = assay: Mutagenic activity in Salmonella typhimurium TA-1538 at 0.1 to 100 ug/plate by Ames assay in presence of rat liver microsomal enzyme preparation; type: toxicity, organism-based; details: salmonella enterica subsp. enterica serovar typhimurium, microsomes
Staphylococcus aureus [39] = assay: Antibacterial activity against Staphylococcus aureus No. 6538 P assessed as growth inhibition by broth microdilution method; type: functional
[40] = Antifungal activity against Trichophyton concentricum assessed as growth inhibition by agar dilution method; type: functional
Candida albicans [41] = assay: Antifungal activity against Candida albicans infected in mouse assessed as noninfected animals at 0.25 to 4% formulation in neat PEG 400 solution administered vaginally bid for 4 days measured on day 21; type: functional, organism-based
[42] = Acute toxicity in po dosed mouse; type: organism-based; details: in vivo
[43] = test system: Trichophyton mentagrophytes; assay: Antifungal activity against Trichophyton mentagrophytes infected in guinea pig assessed as noninfected animals at 0.5% formulation in steryl alcohol, cetyl alcohol, Span 60, Tween 60, propylene glycol, mineral oil, and water administered qd for 5 days measured on day 7; type: functional
Microsporum canis = assay: Antifungal activity against Microsporum canis assessed as growth inhibition by agar dilution method; type: functional
Candida albicans [44] = assay: Antifungal activity against Candida albicans ATCC 14053 assessed as growth inhibition by broth dilution method; type: functional
Salmonella typhimurium [45] = assay: Mutagenic activity in Salmonella typhimurium TA-100 at 0.1 to 100 ug/plate by Ames assay; type: toxicity, organism-based; details: salmonella enterica subsp. enterica serovar typhimurium
Salmonella typhimurium [46] = assay: Toxicity in Salmonella typhimurium TA-100 at 500 ug/plate; type: organism-based; details: salmonella enterica subsp. enterica serovar typhimurium
Salmonella typhimurium [47] = assay: Mutagenic activity in Salmonella typhimurium TA-1537 at 0.1 to 100 ug/plate by Ames assay; type: toxicity, organism-based; details: salmonella enterica subsp. enterica serovar typhimurium
Salmonella typhimurium [48] = assay: Mutagenic activity in Salmonella typhimurium TA-1535 at 0.1 to 100 ug/plate by Ames assay in presence of rat liver microsomal enzyme preparation; type: toxicity, organism-based; details: salmonella enterica subsp. enterica serovar typhimurium, microsomes
Salmonella typhimurium [49] = assay: Mutagenic activity in Salmonella typhimurium TA-98 at 0.1 to 100 ug/plate by Ames assay in presence of rat liver microsomal enzyme preparation; type: toxicity, organism-based; details: salmonella enterica subsp. enterica serovar typhimurium, microsomes
Candida albicans [50] = assay: Antifungal activity against Candida albicans infected in mouse assessed as noninfected animals at 1% formulation in neat PEG 400 solution administered vaginally bid for 4 days measured 6 hrs post last dose relative to placebo; type: functional

Clc1ccc(CCC(Cn2ccnc2)Sc2c(Cl)cccc2Cl)cc1.O=[N+]([O-])O (stereo not given) [BUTOCONAZOLE NITRATE]
Activity (Saccharomyces cerevisiae [1]): Non-toxic
Activity (Candida albicans [2]): 75%
GI (Enterococcus faecalis): 3.12 µg/mL
GI (Trichophyton rubrum): 0.05 µg/mL
Activity (Candida albicans [3]): 55%
Activity (Salmonella typhimurium [4]): Non-toxic
GI (Nannizzia gypsea): 0.05 µg/mL
Activity (Salmonella typhimurium [5]): Non-toxic
Activity (Candida albicans [6]): 84%
GI (Candida albicans [7]): 30 µg/mL
GI [8]: 1 µg/mL
GI (Staphylococcus aureus [9]): 12.5 µg/mL
LD50 [10]: > 1600 mg/kg
Activity (Candida albicans [11]): 65%
GI (Cryptococcus neoformans): <=1 ug ml-1
Activity (Saccharomyces cerevisiae [12]): Non-toxic
Activity (Candida albicans [13]): 80%
Activity (Saccharomyces cerevisiae [14]): Toxic
Activity (Candida albicans [15]): 60%
Activity (Candida albicans [16]): 75%
Activity (Candida albicans [17]): 75%
Activity (Candida albicans [18]): 85%
Activity (Salmonella typhimurium [19]): Toxic
GI (Epidermophyton floccosum): 5 µg/mL
LD50 [20]: 940 mg/kg
Activity (Candida albicans [21]): 85%
Activity (Salmonella typhimurium [22]): Toxic
Activity [23]: 60%
Activity (Candida albicans [24]): 83%
Activity (Candida albicans [25]): 35%
Activity (Candida albicans [26]): 60%
Activity (Salmonella typhimurium [27]): Non-toxic
Activity (Salmonella typhimurium [28]): Toxic
GI (Streptococcus pyogenes): 0.0016 µg/mL
Activity (Salmonella typhimurium [29]): Non-toxic
Activity (Candida albicans [30]): 63%
LD50 [31]: 1720 mg/kg
GI (Trichophyton tonsurans): 5 µg/mL
Activity (Candida albicans [32]): 40%
LD50 [33]: > 3200 mg/kg
Activity (Salmonella typhimurium [34]): Toxic
Activity (Candida albicans [35]): 95%
Activity (Salmonella typhimurium [36]): Non-toxic
Activity [37]: 40%
Activity (Salmonella typhimurium [38]): Non-toxic
GI (Staphylococcus aureus [39]): 6.25 µg/mL
GI [40]: 0.05 µg/mL
Activity (Candida albicans [41]): Active
LD50 [42]: > 3200 mg/kg
Activity [43]: 90%
GI (Microsporum canis): 0.1 µg/mL
GI (Candida albicans [44]): 10 µg/mL
Activity (Salmonella typhimurium [45]): Non-toxic
Activity (Salmonella typhimurium [46]): Toxic
Activity (Salmonella typhimurium [47]): Non-toxic
Activity (Salmonella typhimurium [48]): Non-toxic
Activity (Salmonella typhimurium [49]): Non-toxic
Activity (Candida albicans [50]): 90%

Clc1ccccc1C(c1ccccc1)(c1ccccc1)n1ccnc1 [CLOTRIMAZOLE]
Activity (Candida albicans [35]): 55%
Activity (Candida albicans [50]): 85%
